From the supplement of paper PMC8149375

Assays:
Settings in all cases: treatment: drug + dasatinib (fixed dose, not stated); 5 days
769-P [1] = test: GI50 of drug in presence of dasatinib; higher = less potent
Description: (§1)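 Primary HTS combination arm: 8 RCC cell lines treated with 8 doses (up to 10 uM) of each library drug plus a fixed dose of dasatinib (dose not stated) for 5 days; viability read by CellTiter-Glo and normalised to DMSO. GI50 was fitted with XLfit, AUC is the area under the dose-response curve, and minimum viability is the lowest fraction of DMSO viability across doses.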

ACHN [2] = test: as above
Description: as §1

SN12C [3] = test: as above
Description: as §1

A498 [4] = test: as above
Description: as §1

UO-31 [5] = test: as above
Description: as §1

CAKI-1 [6] = test: as above
Description: as §1

TK-10 [7] = test: as above
Description: as §1

786-O [8] = test: as above
Description: as §1

769-P [9] = test: minimum viability across doses, drug + dasatinib, relative to DMSO (fraction); higher = less growth inhibition
Description: as §1

ACHN [10] = test: as above
Description: as §1

SN12C [11] = test: as above
Description: as §1

A498 [12] = test: as above
Description: as §1

UO-31 [13] = test: as above
Description: as §1

CAKI-1 [14] = test: as above
Description: as §1

TK-10 [15] = test: as above
Description: as §1

786-O [16] = test: as above
Description: as §1

769-P [17] = test: AUC of dose-response viability curve, drug + dasatinib, normalised to DMSO (arbitrary (AUC of normalised viability)); higher = less growth inhibition
Description: as §1

ACHN [18] = test: as above
Description: as §1

SN12C [19] = test: as above
Description: as §1

A498 [20] = test: as above
Description: as §1

UO-31 [21] = test: as above
Description: as §1

CAKI-1 [22] = test: as above
Description: as §1

TK-10 [23] = test: as above
Description: as §1

786-O [24] = test: as above
Description: as §1

Row | Compound | GI50 of drug (769-P [1]) [µM] | GI50 of drug (ACHN [2]) [nM] | GI50 of drug (SN12C [3]) [µM] | GI50 of drug (A498 [4]) [µM] | GI50 of drug (UO-31 [5]) [µM] | GI50 of drug (CAKI-1 [6]) [nM] | GI50 of drug (TK-10 [7]) [nM] | GI50 of drug (786-O [8]) [nM] | minimum viability across doses (769-P [9]) | minimum viability across doses (ACHN [10]) | minimum viability across doses (SN12C [11]) | minimum viability across doses (A498 [12]) | minimum viability across doses (UO-31 [13]) | minimum viability across doses (CAKI-1 [14]) | minimum viability across doses (TK-10 [15]) | minimum viability across doses (786-O [16]) | AUC of dose-response viability curve (769-P [17]) | AUC of dose-response viability curve (ACHN [18]) | AUC of dose-response viability curve (SN12C [19]) | AUC of dose-response viability curve (A498 [20]) | AUC of dose-response viability curve (UO-31 [21]) | AUC of dose-response viability curve (CAKI-1 [22]) | AUC of dose-response viability curve (TK-10 [23]) | AUC of dose-response viability curve (786-O [24])
1 | FC(F)(F)c1ccc(Nc2nc3cc(Oc4ccnc(-c5ncc(C(F)(F)F)[nH]5)c4)ccc3[nH]2)cc1 [Raf265 derivative] + Cc1nc(Nc2ncc(C(=O)Nc3c(C)cccc3Cl)s2)cc(N2CCN(CCO)CC2)n1 [dasatinib] | 5.01 | 3300 | > 10 | > 10 | > 10 | 3550 | 9070 | 5020 | 0.318 | 0.137 | 0.484 | 0.633 | 0.551 | 0.173 | 0.476 | 0.241 | 2.37 | 2.21 | 2.47 | 3.35 | 3.44 | 2.35 | 2.73 | 2.47
2 | CC[C@H](CO)Nc1nc(NCc2ccccc2)c2ncn(C(C)C)c2n1 [Roscovitine (Seliciclib, CYC202)] + Cc1nc(Nc2ncc(C(=O)Nc3c(C)cccc3Cl)s2)cc(N2CCN(CCO)CC2)n1 [dasatinib] | > 10 | 3630 | > 10 | > 10 | 9.07 | > 10000 | > 10000 | 4900 | 0.595 | 0.266 | 0.669 | 0.847 | 0.272 | 0.514 | 0.675 | 0.259 | 2.52 | 2.15 | 2.52 | 3.29 | 3.04 | 2.54 | 2.74 | 2.32
3 | CN1CCN(CCOc2cc(OC3CCOCC3)c3c(Nc4c(Cl)ccc5c4OCO5)ncnc3c2)CC1 [Saracatinib (AZD0530)] + Cc1nc(Nc2ncc(C(=O)Nc3c(C)cccc3Cl)s2)cc(N2CCN(CCO)CC2)n1 [dasatinib] | 0.311 | 366 | > 10 | > 10 | 1.09 | 878 | 709 | 2000 | 0.0614 | 0.192 | 0.536 | 0.616 | 0.158 | 0.14 | 0.102 | 0.333 | 1.68 | 1.79 | 2.39 | 3.19 | 2.51 | 2.01 | 2.19 | 2.28
4 | Cc1cc(C)c(/C=C2\C(=O)Nc3ccccc32)[nH]1 [Semaxanib (SU5416)] + Cc1nc(Nc2ncc(C(=O)Nc3c(C)cccc3Cl)s2)cc(N2CCN(CCO)CC2)n1 [dasatinib] | > 10 | > 10000 | > 10 | > 10 | > 10 | > 10000 | > 10000 | > 10000 | 0.658 | 0.472 | 0.666 | 1.01 | 1.2 | 0.584 | 0.657 | 0.606 | 2.48 | 1.99 | 2.46 | 3.96 | 4.67 | 2.21 | 2.54 | 2.4
5 | CNC(=O)c1cc(Oc2ccc(NC(=O)Nc3ccc(Cl)c(C(F)(F)F)c3)cc2)ccn1.Cc1ccc(S(=O)(=O)O)cc1 [Sorafenib (Nexavar)] + Cc1nc(Nc2ncc(C(=O)Nc3c(C)cccc3Cl)s2)cc(N2CCN(CCO)CC2)n1 [dasatinib] | 3.77 | 3170 | 5.96 | 7.05 | 1.53 | 4810 | 9080 | 2200 | 0.249 | 0.0615 | 0.265 | 0.245 | 0.138 | 0.118 | 0.471 | 0.174 | 2.31 | 2.33 | 2.52 | 2.94 | 2.41 | 2.42 | 2.72 | 2.32
6 | CN1CCN(c2nc(C3=C(c4c[nH]c5ccccc45)C(=O)NC3=O)c3ccccc3n2)CC1 [Sotrastaurin (AEB071)] + Cc1nc(Nc2ncc(C(=O)Nc3c(C)cccc3Cl)s2)cc(N2CCN(CCO)CC2)n1 [dasatinib] | > 10 | > 10000 | > 10 | > 10 | > 10 | > 10000 | > 10000 | > 10000 | 0.673 | 0.536 | 0.661 | 0.904 | 1.16 | 0.555 | 0.663 | 0.674 | 2.3 | 2.04 | 2.45 | 3.6 | 4.79 | 2.44 | 2.84 | 3.14
7 | CN[C@@H]1C[C@H]2O[C@@](C)([C@@H]1OC)n1c3ccccc3c3c4c(c5c6ccccc6n2c5c31)C(=O)NC4 [Staurosporine] + Cc1nc(Nc2ncc(C(=O)Nc3c(C)cccc3Cl)s2)cc(N2CCN(CCO)CC2)n1 [dasatinib] | < 0.003 | 3.6 | 0.0104 | 0.0323 | < 0.003 | < 3 | < 3 | < 3 | 0.0048 | 0.00268 | 0.00331 | 0.0115 | 0.0095 | 0.00221 | 0.0201 | 0.00375 | 0.201 | 0.372 | 0.755 | 1.07 | 0.0461 | 0.0603 | 0.303 | 0.109
8 | CCN(CC)CCNC(=O)c1c(C)[nH]c(/C=C2\C(=O)Nc3ccc(F)cc32)c1C.O=C(O)C[C@H](O)C(=O)O [Sunitinib Malate (Sutent)] + Cc1nc(Nc2ncc(C(=O)Nc3c(C)cccc3Cl)s2)cc(N2CCN(CCO)CC2)n1 [dasatinib] | 3.14 | 281 | 1.53 | 2.02 | 1.02 | 496 | 2860 | 2520 | 0.0812 | 0.0769 | 0.0218 | 0.167 | 0.0138 | 0.00649 | 0.221 | 0.0195 | 2.26 | 1.58 | 1.88 | 2.52 | 2.59 | 1.81 | 2.52 | 2.49
9 | CCS(=O)(=O)c1cccc(-c2cc(C(=O)NC3CCN(C)CC3)c(C)c3[nH]c4ncc(C)cc4c23)c1 [TAK-901] + Cc1nc(Nc2ncc(C(=O)Nc3c(C)cccc3Cl)s2)cc(N2CCN(CCO)CC2)n1 [dasatinib] | 4.01 | 235 | 0.347 | 0.588 | 8.85 | 318 | 607 | 171 | 0.344 | 0.0237 | 0.00509 | 0.013 | 0.287 | 0.0186 | 0.0604 | 0.00567 | 2.27 | 1.5 | 1.52 | 2.63 | 4.3 | 1.62 | 1.93 | 1.55
10 | Nc1nc(N)c2nc(-c3cccc(O)c3)c(-c3cccc(O)c3)nc2n1 [TG100-115] + Cc1nc(Nc2ncc(C(=O)Nc3c(C)cccc3Cl)s2)cc(N2CCN(CCO)CC2)n1 [dasatinib] | 6.88 | 2730 | > 10 | > 10 | > 10 | 3150 | > 10000 | > 10000 | 0.463 | 0.368 | 0.637 | 0.882 | 1.03 | 0.308 | 0.739 | 0.681 | 2.32 | 2.04 | 2.52 | 3.23 | 3.95 | 2.12 | 2.71 | 2.76
11 | NC(=O)Nc1sc(-c2ccc(F)cc2)cc1C(N)=O [TPCA-1] + Cc1nc(Nc2ncc(C(=O)Nc3c(C)cccc3Cl)s2)cc(N2CCN(CCO)CC2)n1 [dasatinib] | 2.18 | 346 | > 10 | > 10 | 3.72 | 458 | 848 | 2540 | 0.232 | 0.184 | 0.405 | 0.711 | 0.212 | 0.076 | 0.176 | 0.258 | 2.22 | 1.7 | 2.35 | 3.33 | 3.28 | 1.81 | 1.94 | 2.09
12 | Cc1[nH]c(/C=C2\C(=O)Nc3ccccc32)c(C)c1CCC(=O)O [TSU-68] + Cc1nc(Nc2ncc(C(=O)Nc3c(C)cccc3Cl)s2)cc(N2CCN(CCO)CC2)n1 [dasatinib] | > 10 | > 10000 | > 10 | > 10 | > 10 | > 10000 | > 10000 | > 10000 | 0.66 | 0.512 | 0.609 | 0.699 | 1.07 | 0.595 | 0.74 | 0.61 | 2.42 | 1.94 | 2.32 | 3.61 | 1.95 | 2.29 | 2.77 | 2.39
13 | CC(C)c1ccccc1Cc1cc(C(=O)Nc2ccc(S(=O)(=O)c3ccccc3C(C)(C)C)cc2)c(O)c(O)c1O [TW-37] + Cc1nc(Nc2ncc(C(=O)Nc3c(C)cccc3Cl)s2)cc(N2CCN(CCO)CC2)n1 [dasatinib] | 1.57 | 344 | > 10 | > 10 | 9.77 | 506 | 3060 | 1200 | 0.0407 | 0.0767 | 0.519 | 0.773 | 0.416 | 0.0425 | 0.325 | 0.124 | 2.19 | 1.58 | 2.6 | 3.28 | 4.4 | 1.77 | 2.18 | 2.07
14 | Nc1cccc(-c2cc3c(Oc4cccc(O)c4)ncnc3[nH]2)c1 [TWS119] + Cc1nc(Nc2ncc(C(=O)Nc3c(C)cccc3Cl)s2)cc(N2CCN(CCO)CC2)n1 [dasatinib] | 0.798 | 287 | 3.6 | > 10 | 3.66 | 1740 | 1480 | 3570 | 0.0643 | 0.126 | 0.25 | 0.653 | 0.0374 | 0.07 | 0.0898 | 0.288 | 1.93 | 1.62 | 2.33 | 3.56 | 3.25 | 2.11 | 2.34 | 2.39
